What all share (format): physicochemical
The nature of data set [1]: Dynamic vapor sorption (DVS) hygroscopicity test. The following applies: for Evaluation results: hygroscopicity: summary of forms; for hygroscopic weight gain (DVS): 25° C. and 80% RH; for hygroscopicity (DVS), in words: 80% RH; for crystalline form before and after hygroscopic test (XRPD after DVS): XRPD of sample after DVS. From the text: In the present invention, the DVS test parameters are set as follows: […]

Data set [2] is described as follows: XRPD characterization (crystallinity), summary evaluation. The following applies: summary of forms. The source says: In the present invention, the XRPD test parameters are set as follows: […]
A short description of data set [3]: Stability study, solid form by XRPD after open storage at high temperature / high humidity. The following applies: for change in the crystalline form after storage (XRPD), physical stability: open, 60° C., RT/92.5% RH, RT/75% RH, 40° C./75% RH, 30 days. The method, then:
In the present invention, the XRPD test parameters are set as follows:
Then, the sample flasks were opened to air (sealed with aluminum foil punctured with small holes) and placed in constant temperature and humidity cabinets at high temperature (60° C.), at room temperature and high humidity (RT/92.5% RH), at RT/75% RH, and at 40° C./75% RH for 30 days, respectively, and samples were taken at days 5, 10 and 30 for XRPD and HPLC detection.

The nature of data set [4]: Stability study, content and related substances (TRS, total impurity content) by HPLC. The following applies: for chemical stability (HPLC, TRS total impurity content): open, 60° C., RT/92.5% RH, RT/75% RH, 40° C./75% RH, up to 30 days. The method, then:
In the present invention, the HPLC (high performance liquid chromatography) test parameters are set as follows:
Then, the sample flasks were opened to air (sealed with aluminum foil punctured with small holes) and placed in constant temperature and humidity cabinets at high temperature (60° C.), at room temperature and high humidity ([…]), at RT/75% RH, and at 40° C./75% RH for 30 days, respectively, […]

Where a name gives a salt, the structure may show the parent alone.

Take `CC(C)N1Cc2cc(C(F)(F)F)ncc2-c2cnc(NCc3c(F)ccc4c3CCO4)n3cnc(c23)C1=O` [Crystalline form G]: the “Evaluation results: hygroscopicity” value in data set [1] is recorded as “slight hygroscopicity”. For the same molecule, the “Evaluation results: crystallinity” value in data set [2] is “High crystallinity”.
As for `CC(C)N1Cc2cc(C(F)(F)F)ncc2-c2cnc(NCc3c(F)ccc4c3CCO4)n3cnc(c23)C1=O` [crystalline form B of the compound of formula I], in data set [1], the “hygroscopic weight gain (DVS)” value was 0.84% and the “hygroscopicity (DVS), in words” value is “slight hygroscopicity”. The “change in the crystalline form after storage (XRPD), physical stability” value (shortened to “change in the crystalline form”) in data set [3] is “no change in the crystalline form”. Besides, the “chemical stability (HPLC, TRS total impurity content)” value (from here on “chemical stability”) in data set [4] is on record as “good chemical stability”.
In the case of `CC(C)N1Cc2cc(C(F)(F)F)ncc2-c2cnc(NCc3c(F)ccc4c3CCO4)n3cnc(c23)C1=O` [crystalline form A of the sulfate salt of the compound of fo], in data set [1], the “hygroscopic weight gain (DVS)” value was 1.43%; the “hygroscopicity (DVS), in words” value is on record as “slight hygroscopicity”; the “crystalline form before and after hygroscopic test (XRPD after DVS)” value is “did not change”. Besides, in data set [3], the “change in the crystalline form” value is “no change in the crystalline form”.
Consider `CC(C)N1Cc2cc(C(F)(F)F)ncc2-c2cnc(NCc3c(F)ccc4c3CCO4)n3cnc(c23)C1=O` [crystalline form A of the hydrochloride salt of the compound], for which, in data set [1], the “hygroscopic weight gain (DVS)” value was found to be 0.31%; the “hygroscopicity (DVS), in words” value is “slight hygroscopicity”; the “crystalline form before and after hygroscopic test (XRPD after DVS)” value is recorded as “did not change”. The “change in the crystalline form” value in data set [3] was “no change in the crystalline form”. For the same molecule, the “chemical stability” value in data set [4] is listed as “good chemical stability”.
As for `CC(C)N1Cc2cc(C(F)(F)F)ncc2-c2cnc(NCc3c(F)ccc4c3CCO4)n3cnc(c23)C1=O` [crystalline form A of the compound of formula I], in data set [1], the “hygroscopic weight gain (DVS)” value is listed as 0.44% and the “hygroscopicity (DVS), in words” value is “slight hygroscopicity”. Moreover, in data set [3], the “change in the crystalline form” value was “no change in the crystalline form”. The “chemical stability” value in data set [4] is “good chemical stability”.
For the molecule `CC(C)N1Cc2cc(C(F)(F)F)ncc2-c2cnc(NCc3c(F)ccc4c3CCO4)n3cnc(c23)C1=O.Cc1ccc(S(=O)(=O)O)cc1` [p-toluenesulfonate Crystalline form A], the “Evaluation results: crystallinity” value in data set [2] is reported as “High crystallinity”.
Regarding `CC(C)N1Cc2cc(C(F)(F)F)ncc2-c2cnc(NCc3c(F)ccc4c3CCO4)n3cnc(c23)C1=O` [crystalline form A of the methanesulfonate salt of the compo], in data set [1], the “hygroscopic weight gain (DVS)” value is on record as 0.84%; the “hygroscopicity (DVS), in words” value was “slight hygroscopicity”; the “crystalline form before and after hygroscopic test (XRPD after DVS)” value is “did not change”. Also, the “change in the crystalline form” value in data set [3] was “no change in the crystalline form”.
With `CC(C)N1Cc2cc(C(F)(F)F)ncc2-c2cnc(NCc3c(F)ccc4c3CCO4)n3cnc(c23)C1=O.CS(=O)(=O)O` [Methanesulfonate salt Crystalline form A], the “Evaluation results: crystallinity” value in data set [2] is on record as “High crystallinity”.
With `CC(C)N1Cc2cc(C(F)(F)F)ncc2-c2cnc(NCc3c(F)ccc4c3CCO4)n3cnc(c23)C1=O.O=S(=O)(O)O` [Sulfate Crystalline form A], the “Evaluation results: hygroscopicity” value in data set [1] is given as “Slight hygroscopicity”.
For the molecule `CC(C)N1Cc2cc(C(F)(F)F)ncc2-c2cnc(NCc3c(F)ccc4c3CCO4)n3cnc(c23)C1=O` [Crystalline form B], the “Evaluation results: crystallinity” value in data set [2] was “high crystallinity”. Also, the “Evaluation results: stability” value in data set [3] (summary of forms) was “Good stability”. Moreover, the “TRS(%)” value is 0.54% in data set [4] (40° C./75RH %-5 d, open storage); 0.46% in data set [4] (40° C./75RH %- 10 d, open storage); 0.56% in data set [4] (40° C./75RH %- 30 d, open storage); 0.52% in data set [4] (60° C.-5 d, open storage); 0.53% in data set [4] (60° C.-10 d, open storage); 0.62% in data set [4] (60° C.-30 d, open storage). Besides, the “TRS(%)” value was found to be 0.89% in data set [4] (Initial, TRS = total impurity content, HPLC); 0.55% in data set [4] (RT/90RH %-5 d, open storage); 0.56% in data set [4] (RT/90RH %-10 d, open storage); 0.58% in data set [4] (RT/90RH %-30 d, open storage).

Source of the values: US20250109134A1 (Ascentage Pharma (Suzhou) Co., Ltd., priority 2022, published 2025).
